Legend:
5-HT2A receptors = 5-HT2A receptors (Rattus norvegicus, UniProt P14842); assay: in-vitro affinity to 5-HT2A receptors, displacement of [3H]ketanserine (Example A1); assay type: binding; conditions: read-out: HT2A IC50
From the text: The 5-HT2A receptors are exposed both to [^3H]ketanserine (a substance which is known for its affinity to the receptor) and also to the test compound. The decrease in the affinity of [^3H]ketanserine to the receptor is an indication of the affinity of the test substance to the 5-HT2A receptor.

5 HT2C receptor = biological target: T1, 5 HT2C receptor (Homo sapiens, UniProt P28335); assay: affinity to the 5 HT2C receptor; assay type: binding
T1 sequence (P28335 33-458): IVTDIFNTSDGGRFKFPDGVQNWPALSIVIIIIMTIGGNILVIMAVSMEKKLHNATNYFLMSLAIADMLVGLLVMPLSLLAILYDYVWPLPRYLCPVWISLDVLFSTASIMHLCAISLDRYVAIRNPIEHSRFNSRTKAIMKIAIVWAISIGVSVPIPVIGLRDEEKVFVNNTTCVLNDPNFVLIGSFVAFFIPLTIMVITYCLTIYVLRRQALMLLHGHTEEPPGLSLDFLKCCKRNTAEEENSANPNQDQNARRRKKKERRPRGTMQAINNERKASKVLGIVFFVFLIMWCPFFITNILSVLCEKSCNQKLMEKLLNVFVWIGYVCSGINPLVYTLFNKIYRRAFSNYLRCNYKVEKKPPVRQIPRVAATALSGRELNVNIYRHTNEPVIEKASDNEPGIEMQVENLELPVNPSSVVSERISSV

5-HT2A receptors, sequence (P14842 whole entry): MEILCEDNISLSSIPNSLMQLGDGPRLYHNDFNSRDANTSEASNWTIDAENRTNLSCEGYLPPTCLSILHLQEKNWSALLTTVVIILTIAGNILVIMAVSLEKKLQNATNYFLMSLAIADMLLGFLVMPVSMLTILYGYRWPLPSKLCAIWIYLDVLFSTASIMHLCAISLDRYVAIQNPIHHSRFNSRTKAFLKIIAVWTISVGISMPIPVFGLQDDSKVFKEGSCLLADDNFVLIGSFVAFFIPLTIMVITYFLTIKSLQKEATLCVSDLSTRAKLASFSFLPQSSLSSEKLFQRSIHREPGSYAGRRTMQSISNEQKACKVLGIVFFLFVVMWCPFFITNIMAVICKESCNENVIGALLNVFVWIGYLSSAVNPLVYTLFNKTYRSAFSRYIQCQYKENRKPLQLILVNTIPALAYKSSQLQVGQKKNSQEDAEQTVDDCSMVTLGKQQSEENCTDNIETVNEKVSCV

Row | Structure (SMILES) | IC50 (5-HT2A receptors) | IC50 (5 HT2C receptor)
1 | CCN1CCN(Cc2cnn(-c3ccc(-c4ccc(F)cc4)cc3)c2-c2ccc(Cl)cc2)CC1 [Example 1037, 1-[5-(4-Chlorophenyl)-1-(4′-fluoro-biphenyl-4-yl)-1H-pyrazol-4-ylmethyl]-4-ethylpiperazine] | 310 nM | 1000 nM
2 | O=C1NCN(c2ccccc2)C12CCN(Cc1cnn(-c3ccc(-c4ccccc4)cc3)c1-c1ccccc1F)CC2 [Example 1051, 8-[1-Biphenyl-4-yl-5-(2-fluorophenyl)-1H-pyrazol-4-ylmethyl]-1-phenyl-1,3,8-triaza-spiro[4.5]decan-4-one] | 400 nM | 1000 nM
3 | CC(C)N1CCN(Cc2cnn(-c3ccc(-c4ccc(F)cc4)cc3)c2-c2ccccc2Cl)CC1 [Example 997, 1-[5-(2-Chlorophenyl)-1-(4′-fluoro-biphenyl-4-yl)-1H-pyrazol-4-ylmethyl]-4-isopropylpiperazine] | 160 nM | 1000 nM
4 | CCN(CC)Cc1cnn(-c2ccc(-c3ccc(F)cc3)cc2)c1-c1ccc(Cl)cc1 [Example 1016, [5-(4-Chlorophenyl)-1-(4′-fluoro-biphenyl-4-yl)-1H-pyrazol-4-ylmethyl]diethylamine] | 220 nM | 1000 nM
5 | OCCNCc1cnn(-c2ccc(-c3ccccc3)cc2)c1-c1ccccc1F [Example 892, 2-{[1-Biphenyl-4-yl-5-(2-fluorophenyl)-1H-pyrazol-4-ylmethyl]amino}ethanol] | 5.2 nM | 420 nM
6 | Fc1ccc(CCN2CCN(Cc3cnn(-c4ccccn4)c3-c3ccccc3F)CC2)c(F)c1 [Example 919, 1-[2-(2,4-Difluorophenyl)ethyl]-4-[5-(2-fluoro-phenyl)-1-pyridin-2-yl-1H-pyrazol-4-ylmethyl]-piperazine] | 23 nM | 1000 nM
7 | CN1CCN(Cc2cnn(-c3ccc(-c4cc(F)ccc4F)cc3)c2-c2ccccc2)CC1 [Example 981, 1-[1-(2′,5′-Difluorobiphenyl-4-yl)-5-phenyl-1H-pyrazol-4-ylmethyl]-4-methylpiperazine] | 110 nM | 1000 nM
8 | Fc1ccccc1-c1c(CN2CCc3ccccc3C2)cnn1-c1ccc(-c2ccccc2)cc1 [Example 964, 2-[1-Biphenyl-4-yl-5-(2-fluoro-phenyl)-1H-pyrazol-4-ylmethyl]-1,2,3,4-tetrahydro-iso-quinoline] | 70 nM | 1000 nM
9 | Fc1ccccc1-c1c(CN2CCCCC2)cnn1-c1ccc(-c2ccccc2)cc1 [Example 931, 1-[1-Biphenyl-4-yl-5-(2-fluorophenyl)-1H-pyrazol-4-ylmethyl]piperidine] | 30 nM | 1000 nM
10 | CC(C)c1ccc(-n2ncc(CN3CCN(C)CC3)c2-c2ccccc2F)cc1 [Example 983, 1-[5-(2-Fluorophenyl)-1-(4-isopropylphenyl)-1H-pyrazol-4-ylmethyl]-4-methylpiperazine] | 120 nM | 520 nM
11 | CN(C)Cc1cnn(-c2ccc(-c3ccccc3)cc2)c1-c1ccccc1F [Example 914, [1-Biphenyl-4-yl-5-(2-fluorophenyl)-1H-pyrazol-4-ylmethyl]dimethylamine] | 21 nM | 450 nM
12 | CC(C)N1CCN(Cc2cnn(-c3ccc(-c4ccc(F)cc4)cc3)c2-c2ccc(Cl)cc2)CC1 [Example 1054, 1-[5-(4-Chlorophenyl)-1-(4′-fluoro-biphenyl-4-yl)-1H-pyrazol-4-ylmethyl]-4-isopropylpiperazine] | 440 nM | 1000 nM
13 | CN1CCN(Cc2cnn(-c3ccc(-c4ccc(F)cc4)cc3)c2-c2ccccc2)CC1 [Example 900, 1-[1-(4′-Fluorobiphenyl-4-yl)-5-phenyl-1H-pyrazol-4-ylmethyl]-4-methylpiperazine] | 13 nM | 310 nM
14 | CN(C)CCN(C)Cc1cnn(-c2ccc(-c3ccc(F)cc3)cc2)c1-c1ccccc1Cl [Example 946, N-[5-(2-chlorophenyl)-1-(4′-fluoro-biphenyl-4-yl)-1H-pyrazol-4-ylmethyl]-N,N′,N′-trimethyl-ethane-1,2-diamine] | 44 nM | 490 nM
15 | OC1CCN(CCc2cnn(-c3ccc(-c4ccc(F)cc4)cc3)c2-c2ccccc2F)C1 (stereo not drawn) [Example 913, 1-{2-[1-(4′-Fluorobiphenyl-4-yl)-5-(2-fluoro-phenyl)-1H-pyrazol-4-yl]ethyl}pyrrolidin-3-ol] | 20 nM | 620 nM
16 | CN1CCN(Cc2cnn(-c3ccc(-n4cccc4)cc3)c2-c2ccccc2F)CC1 [Example 909, 1-[5-(2-Fluorophenyl)-1-(4-pyrrol-1-ylphenyl)-1H-pyrazol-4-ylmethyl]-4-methylpiperazine] | 17 nM | 210 nM
17 | CN1CCN(Cc2cnn(-c3ccc(-c4ccc(Cl)cc4)cc3)c2-c2ccccc2F)CC1 [Example 920, 1-[1-(4′-Chlorobiphenyl-4-yl)-5-(2-fluoro-phenyl)-1H-pyrazol-4-ylmethyl]-4-methyl-piperazine] | 23 nM | 330 nM

Row | Structure (SMILES) | IC50 (5-HT2A receptors) | IC50 (5 HT2C receptor)
18 | CN1CCCN(Cc2cnn(-c3ccc(-c4ccccc4)cc3)c2-c2ccccc2F)CC1 [Example 893, 1-[1-Biphenyl-4-yl-5-(2-fluorophenyl)-1H-pyrazol-4-ylmethyl]-4-methyl-[1,4]diazepam] | 6.4 nM | 230 nM
19 | CC(=O)NC1CCN(Cc2cnn(-c3ccc(-c4ccccc4)cc3)c2-c2ccccc2F)C1 (stereo not drawn) [Example 929, N-{1-[1-Biphenyl-4-yl-5-(2-fluoro-phenyl)-1H-pyrazol-4-ylmethyl]pyrrolidin-3-yl}acetamide] | 29 nM | 1000 nM
20 | Fc1ccccc1-c1c(CN2CCNCC2)cnn1-c1ccc(C(F)(F)F)cc1 [Example 944, 1-[5-(2-Fluorophenyl)-1-(4-trifluoro-methyl-phenyl)-1H-pyrazol-4-ylmethyl]piperazine] | 43 nM | 790 nM
21 | O=C1CCCN1CCCNCc1cnn(-c2ccc(-c3ccccc3)cc2)c1-c1ccccc1F [Example 961, 1-(3-{[1-Biphenyl-4-yl-5-(2-fluoro-phenyl)-1H-pyrazol-4-ylmethyl]amino}propyl)pyrrolidin-2-one] | 64 nM | 1000 nM
22 | CN1CCN(Cc2cnn(-c3ccc(OC(F)(F)F)cc3)c2-c2ccccc2F)CC1 [Example 1029, 1-[5-(2-Fluorophenyl)-1-(4-trifluoromethoxy-phenyl)-1H-pyrazol-4-ylmethyl]-4-methyl-piperazine] | 270 nM | 490 nM
23 | CN1CCN(Cc2cnn(-c3ccc(-c4ccc(F)cc4)cc3)c2-c2ccc(Cl)cc2)CC1 [Example 1057, 1-[5-(4-Chlorophenyl)-1-(4′-fluoro-biphenyl-4-yl)-1H-pyrazol-4-ylmethyl]-4-methylpiperazine] | 460 nM | 1000 nM
24 | Fc1ccccc1-c1c(CN2CCCC2)cnn1-c1ccc(-c2ccccc2)cc1 [Example 934, 1-Biphenyl-4-yl-5-(2-fluorophenyl)-4-pyrrolidin-1-ylmethyl-1H-pyrazole] | 32 nM | 1000 nM
25 | NCCNCc1cnn(-c2ccc(-c3ccccc3)cc2)c1-c1ccccc1F [Example 894, N-[1-Biphenyl-4-yl-5-(2-fluorophenyl)-1H-pyrazol-4-ylmethyl]ethane-1,2-diamine] | 6.5 nM | 450 nM
26 | Cn1ccnc1CNCc1cnn(-c2ccc(-c3ccccc3)cc2)c1-c1ccccc1 [Example 942, (1-Biphenyl-4-yl-5-phenyl-1H-pyrazol-4-yl-methyl)-(1-methyl-1H-imidazol-2-ylmethyl)-amine] | 39 nM | 1000 nM
27 | OCc1cnn(-c2ccc(-c3ccc(F)cc3)cc2)c1-c1ccc(Cl)cc1 [Example 933, [5-(4-Chlorophenyl)-1-(4′-fluoro-biphenyl-4-yl)-1H-pyrazol-4-yl]methanol] | 31 nM | 1000 nM
28 | CCN(CC)Cc1cnn(-c2ccc(-c3ccc(F)cc3)cc2)c1-c1ccccc1Cl [Example 951, [5-(2-Chlorophenyl)-1-(4′-fluoro-biphenyl-4-yl)-1H-pyrazol-4-ylmethyl]diethylamine] | 53 nM | 1000 nM
29 | COc1ccc(-c2ccc(-n3ncc(CN4CCN(C)CC4)c3-c3ccccc3F)cc2)cc1 [Example 895, 1-[5-(2-Fluorophenyl)-1-(4′-methoxy-biphenyl-4-yl)-1H-pyrazol-4-ylmethyl]-4-methyl-piperazine] | 7.5 nM | 1150 nM
30 | COCCCNCc1cnn(-c2ccc(-c3ccccc3)cc2)c1-c1ccccc1F [Example 935, [1-Biphenyl-4-yl-5-(2-fluorophenyl)-1H-pyrazol-4-ylmethyl]-(3-methoxypropyl)amine] | 34 nM | 1000 nM
31 | Fc1ccccc1-c1c(CNc2ccon2)cnn1-c1ccc(-c2ccccc2)cc1 [Example 1022, [1-Biphenyl-4-yl-5-(2-fluorophenyl)-1H-pyrazol-4-ylmethyl]isoxazol-3-ylamine] | 240 nM | 1000 nM
32 | NCc1cnn(-c2ccc(-c3ccccc3)cc2)c1-c1ccccc1 [Example 915, C-(1-Biphenyl-4-yl-5-phenyl-1H-pyrazol-4-yl)-methylamine] | 21 nM | 920 nM
33 | CN(C)CCc1cnn(-c2ccc(-c3ccc(F)cc3)cc2)c1-c1ccccc1F [Example 890, {2-[1-(4′-Fluorobiphenyl-4-yl)-5-(2-fluoro-phenyl)-1H-pyrazol-4-yl]ethyl}dimethylamine] | 1.5 nM | 27.4 nM

From patent publication US20060264419A1 (priority 2003, published 2006)
